Measured values published in patent EP0508726A1, “Novel process for the preparation of 9-deoxo-8a-aza-8a-homoerythromycin a and its 8a-alkyl derivatives” (MERCK & CO. INC., priority 1991, dated 1992).
≈ marks a conversion by molar mass, not a printed value.

How the values were obtained:
Experiment in all cases: liquid turbidimetric microtiter MIC determination
Assay type in all cases: cell-based
[1] = tested on: Klebsiella pneumoniae MB 4005; conditions: MB4005, brain heart infusion broth
From the text: (§1) The antibacterial activities of compounds (IV), (X) against a panel of aerobic Gram positive and negative bacteria is shown in the following Table. The assay employs a liquid turbidimetric microtiter method for the determination of the minimum inhibitory concentration (MIC) in brain heart infusion broth. […] The MIC is generally not an absolute value but rather a concentration range that falls within a two-fold dilution limit. Generally twelve two-fold dilutions of the test compound are employed with the initial concentration set at 128 mcg/ml.

[2] = tested on: Enterococcus faecium MB 5416; conditions: MB5416, brain heart infusion broth
From the text: as §1

Escherichia coli MB 2884 = conditions: MB2884, brain heart infusion broth
From the text: as §1

[3] = tested on: Steptococcus viridans CL 2943; conditions: brain heart infusion broth
From the text: as §1

[4] = tested on: Streptococcus pyogenes MB 54061; conditions: MB54061, brain heart infusion broth
From the text: as §1

[5] = tested on: Yersinia enterocoltica CL 1598; conditions: CL1598, brain heart infusion broth
From the text: as §1

[6] = tested on: Enterococcus faecalis MB 5407; conditions: MB5407, brain heart infusion broth
From the text: as §1

[7] = tested on: Staphylococcus haemolyticus MB 5412; conditions: MB5412, brain heart infusion broth
From the text: as §1

[8] = tested on: Pseudomonas stutzeri MB 1231; conditions: Stutzerimonas stutzeri, MB1231, brain heart infusion broth
From the text: as §1

[9] = tested on: Streptococcus pyogenes MB 2874; conditions: MB2874, brain heart infusion broth
From the text: as §1

Escherichia coli MB 4926 = conditions: MB4926, brain heart infusion broth
From the text: as §1

[10] = tested on: Staphylococcus aureus MB 2865; conditions: MB2865, brain heart infusion broth
From the text: as §1

[11] = tested on: Staphylococcus epidermidis MB 5414; conditions: MB5414, brain heart infusion broth
From the text: as §1

[12] = tested on: Streptococcus agalactiae CL 1343; conditions: CL1343, brain heart infusion broth
From the text: as §1

[13] = tested on: Streptococcus pneumoniae CL 2883; conditions: CL2883, brain heart infusion broth
From the text: as §1

| Structure (SMILES) | MIC [1] | MIC [2] | MIC (Escherichia coli MB 2884) | MIC [3] | MIC [4] | MIC [5] | MIC [6] | MIC [7] | MIC [8] | MIC [9] | MIC (Escherichia coli MB 4926) | MIC [10] | MIC [11] | MIC [12] | MIC [13] |
| --- | --- | --- | --- | --- | --- | --- | --- | --- | --- | --- | --- | --- | --- | --- | --- |
| CC[C@H]1OC(=O)[C@H](C)[C@@H](O[C@H]2C[C@@](C)(OC)[C@@H](O)[C@H](C)O2)[C@H](C)[C@@H](O[C@@H]2O[C@H](C)C[C@H](N(C)C)[C@H]2O)[C@](C)(O)C[C@@H](C)N(C)C[C@H](C)[C@@H](O)[C@]1(C)O [(X), 9-Deoxo-8a-methyl-8a-aza-8a-homoerythromycin A] | 2 µg/mL (≈ 2.67 µM) | 0.25 µg/mL (≈ 0.334 µM) | 1 µg/mL (≈ 1.34 µM) | 1 µg/mL (≈ 1.34 µM) | 128 µg/mL (≈ 171 µM) | 2 µg/mL (≈ 2.67 µM) | 4 µg/mL (≈ 5.34 µM) | 0.5 µg/mL (≈ 0.668 µM) | ≤ 0.06 µg/mL | ≤ 0.06 µg/mL | ≤ 0.06 µg/mL | 0.5 µg/mL (≈ 0.668 µM) | 1 µg/mL (≈ 1.34 µM) | ≤ 0.06 µg/mL | ≤ 0.06 µg/mL |
| CC[C@H]1OC(=O)[C@H](C)[C@@H](O[C@H]2C[C@@](C)(OC)[C@@H](O)[C@H](C)O2)[C@H](C)[C@@H](O[C@@H]2O[C@H](C)C[C@H](N(C)C)[C@H]2O)[C@](C)(O)C[C@@H](C)NC[C@H](C)[C@@H](O)[C@]1(C)O [(IV), 9-Deoxo-8a-aza-8a-homoerythromycin A] | 64 µg/mL (≈ 87.1 µM) | 0.25 µg/mL (≈ 0.34 µM) | 4 µg/mL (≈ 5.44 µM) | 8 µg/mL (≈ 10.9 µM) | 128 µg/mL (≈ 174 µM) | 8 µg/mL (≈ 10.9 µM) | 8 µg/mL (≈ 10.9 µM) | 0.5 µg/mL (≈ 0.68 µM) | ≤ 0.06 µg/mL | 0.06 µg/mL (≈ 0.0816 µM) | 2 µg/mL (≈ 2.72 µM) | 0.5 µg/mL (≈ 0.68 µM) | 1 µg/mL (≈ 1.36 µM) | ≤ 0.06 µg/mL | 0.06 µg/mL (≈ 0.0816 µM) |
